Assay results published in publication PMC3828397, “Characterization of PfTrxR inhibitors using antimalarial assays and in silico techniques” (Chemistry Central Journal, 2013).
Like-named read-outs stand apart in the source and are kept apart here.

Legend:
[1] = tested on: P. falciparum chloroquine sensitive (D6, Sierra Leone) strain; experiment: In vitro antimalarial assay (SYBR green), D6 strain; format: cell-based, Plasmodium falciparum
hTrxR = conditions: read-out: Exptl. IC50, hTrxR; cited from earlier work
PfTrxR = conditions: read-out: Pf TrxR IC50; cited from earlier work
Human erythrocytes = experiment: ROS assay in DCFDA loaded erythrocytes; format: cell-based
3T3 cells = experiment: Cytotoxicity assay (AlamarBlue); format: cell-based
[2] = tested on: P. falciparum CQ-sensitive (D6) and CQ-resistant (W2) strains; experiment: In vitro antimalarial assay, statements covering both strains; format: cell-based, Plasmodium falciparum; conditions: for IC50: Plasmodium falciparum, strain not given, read-out: antimalarial activity IC50 (abstract)
[3] = tested on: P. falciparum chloroquine resistant (W2, IndoChina) strain; experiment: In vitro antimalarial assay (SYBR green), W2 strain; format: cell-based, Plasmodium falciparum
[4] = Plasmodium falciparum, D6 clone, mean ± S.D. of triplicate observations, read-out: Pf (D6) CQ sensitive IC50
[5] = test compounds 50 μM, DCFDA fluorescence monitored for 120 min
[6] = Plasmodium falciparum, W2, W2 clone, mean ± S.D. of triplicate observations, read-out: Pf (W2) CQ resistance IC50
[7] = Mus musculus, NIH3T3, 3T3 cells, AlamarBlue, NC: no cytotoxicity up to concentration much higher than the antiplasmodial concentration, read-out: 3T3 IC50
[8] = against the two strains of P. falciparum
[9] = Plasmodium falciparum, D6, read-out: Pf (D6) CQ sensitive IC50
[10] = Plasmodium falciparum, W2, read-out: Pf (W2) CQ resistance IC50

4-nitrobenzothiadiazole [4-NBT]
IC50 ([1]; read-out: Pf (D6) CQ sensitive IC50): 8.3 ± 2.1 µM | IC50 (hTrxR): 50 µM | IC50 (PfTrxR): 2 µM | intraerythrocytic formation of ROS (oxidative stress) (Human erythrocytes): significant increase | IC50 (3T3 cells; read-out: 3T3 IC50): 80 ± 1.15 µM | antimalarial activity in words [2]: most active

O=C1C=CC(=O)c2ccccc21 [1,4-NQ, 1,4-napthoquinone]
IC50 [1, 4]: 8.9 ± 2.3 µM | IC50 (PfTrxR): 0.75 µM | intraerythrocytic formation of ROS (oxidative stress) (Human erythrocytes; [5]): significant increase | IC50 [3, 6]: < 20 µM | IC50 ([3]; W2 clone, mean ± S.D. of triplicate observations, read-out: Pf (W2) CQ resistance IC50): 16.7 ± 3.7 µM | IC50 (3T3 cells; [7]): 38.5 ± 0.76 µM | IC50 [2]: < 20 µM | antimalarial activity in words [2, 8]: most active

CN(C)CCC(=O)c1ccccc1 [3-DAP, 3-dimethylaminopropiophenone]
IC50 [1, 9]: > 100 µM | IC50 (PfTrxR): 15.4 µM | intraerythrocytic formation of ROS (oxidative stress) (Human erythrocytes): did not cause the production of ROS | IC50 [3, 10]: > 100 µM | IC50 (3T3 cells; Mus musculus, NIH3T3, read-out: 3T3 IC50): > 100 µM | antimalarial activity in words [2, 8]: inactive

CCN(CC)CCCC(C)Nc1ccnc2cc(Cl)ccc12 (centres unmarked) [CQ, chloroquine]
IC50 [1, 9]: 0.055 ± 0.006 µM | IC50 [3, 10]: 0.44 ± 0.045 µM

CC1=CC(=O)c2ccccc2C1=O [MD, menadione]
IC50 [1, 4]: 18.5 ± 1.9 µM | IC50 (PfTrxR): 1.6 µM | intraerythrocytic formation of ROS (oxidative stress) (Human erythrocytes; [5]): significant increase | IC50 [3, 6]: 28.3 ± 5.6 µM | IC50 (3T3 cells; [7]): 70.5 ± 3.69 µM | IC50 [2]: < 20 µM | antimalarial activity in words [2, 8]: moderately active
